What was measured:
[1] = system: metastatic lung cancer cells; assay: Alamar Blue proliferation assay, average over metastatic luciferase-expressing lung cancer cell lines; assay type: cell-based, human; details: average of 5 metastatic luc lung cancer cell lines; vs negative control miRNA (=100%); 72 hours
Text: The inventors assessed the therapeutic effect of hsa-miR-147 for lung cancer by using 12 individual lung cancer cell lines. To measure cellular proliferation of lung cancer cells, the following parental non-small cell lung cancer (NSCLC) cells were used: cells derived from lung adenocarcinoma (A549, H1299, H522, H838, Calu-3, HCC827, HCC2935), cells derived from lung squamous cell carcinoma (H520, H226), cells derived from lung adenosquamous cell carcinoma (H596), cells derived from lung bronchioalveolar carcinoma (H1650), and cells derived from lung large cell carcinoma (H460). In addition to these parental cell lines, highly metastatic NSCLC cells were used that stably express the firefly luciferase gene: A549-luc, H460-luc, HCC827-luc, H1650-luc, H441-luc. Unlike the parental cell lines, these metastatic cells readily migrate to distant sites of the test animal and form metastases upon subcutaneous, orthotopic, or intravenous injection. Synthetic hsa-miR-147 or negative control miRNA was delivered via lipid-based transfection into A549, H1299, H522, H838, Calu-3, HCC827, HCC2935, H520, H596, H1650, H460, A549-luc, H460-luc, HCC827-luc, H1650-luc, H441-luc cells and via electroporation into H226 cells. […]

RWPE2 cells = assay: Alamar Blue proliferation assay, RWPE2; assay type: cell-based, human; details: 30 nM, normalized to negative control miRNA (100% proliferation)
Text: The inventors assessed the therapeutic effect of hsa-miR-147 for prostate cancer by using 4 individual human prostate cancer cell lines. To measure cellular proliferation of prostate cancer cells, the following prostate cancer cell lines were used: PPC-1 and PC3, derived from a bone metastasis; Du145, derived from a brain metastasis; RWPE2, derived from prostate cells immortalized by human papillomavirus 18 and transformed by the K-RAS oncogene (Bello et al., 1997; Stone et al., 1978; Brothman et al., 1991). PC3, PPC-1, and Du145 cells lack expression of the prostate-specific antigen (PSA) and are independent of androgen receptor (AR) signaling. In contrast, RWPE2 cells test positive for PSA and AR.
PPC-1, Du145 and RWPE2 cells were transfected with synthetic hsa-miR-147 (Pre-miR™-hsa-miR-147, Ambion cat. no. AM17100) or negative control miRNA (NC; Pre-miR™ microRNA Precursor Molecule-Negative Control #2; Ambion cat. no. AM17111) in a 96-well format using a lipid-based transfection reagent. […] Proliferation was assessed 4-7 days post-transfection using Alamar Blue™ (Invitrogen) following the manufacturer's instructions. […] Fluorescent light units (FLU) were measured after 3 hours, normalized to the control, and plotted as percent change in proliferation. […]

[2] = system: human A549 lung cancer xenografts; assay: A549 lung cancer xenograft, cells electroporated with miRNA before implantation; assay type: in vivo, NOD/SCID mice; details: cells electroporated with 5 μg miRNA, injected subcutaneously; tumors measured days 14-20; vs negative control miRNA
Procedure: The inventors assessed the growth-inhibitory activity of hsa-miR-147 in a human lung cancer xenograft grown in immunodeficient mice. Hsa-miR-147 was delivered into A549 lung cancer cells via electroporation using the BioRad GenePulserXcell™ instrument with the following settings: 15×10^6 cells with 5 μg miRNA in 200 μl OptiMEM, square wave pulse at 150 V for 10 ms. A total of 30×10^6 A549 cells was used to 5×10^6 electroporated cells were mixed with matrigel in a 1:1 ratio and injected subcutaneously into the flank of NOD/SCID mice. As a negative control, A549 cells were electroporated with negative control miRNA (pre-miR-NC#2, Ambion) as describe above. NC miRNA-treated cells were injected into the opposite flank of the same animal to control for animal-to-animal variability. A total of 30×10^6 A549 cells per hsa-miR-147 and NC was used to accommodate 5 injections into 5 animals. Size measurements of tumors started 14 days after injection once tumors have reached a measurable size. Length and width of tumors were determined every day for the following 6 days. Tumor volumes were calculated using the formula V=length×width^2/2 in which the length is greater than the width. Tumor volumes derived from NC-treated cells and hsa-miR-147-treated cells were averaged and plotted over time (FIG. 5). Standard deviations are shown in the graph. […]

## hsa-miR-147: Synthetic pre-miR-147 (Ambion AM17100; Dharmacon in vivo); mature sequence GUGUGUGGAAAUGCUUCUGC, MIMAT0000251, SEQ ID NO:114 (synthetic pre-miR (Ambion/Dharmacon), chemistry not given here; listed as Homo sapiens)
[1]
  inhibition of cell growth, on average: 42%
RWPE2 cells
  % proliferation: 79.08%
[2]
  tumor growth of A549 xenograft: inhibited tumor growth in vivo

— US20090131356A1, “miR-15, miR-26, miR-31, miR-145, miR-147, miR-188, miR-215, miR-216, miR-331, mmu-miR-292-3P REGULATED GENES AND PATHWAYS AS TARGETS FOR THERAPEUTIC INTERVENTION” (ASURAGEN, INC., priority 2006, published 2009)
